How the values were obtained:
PI3Kα (p110α/p85α) = biological target: T1, PI3Kα (p110α/p85α) (Homo sapiens, UniProt P42336); assay: PI3Kα ADP-Glo assay; format: biochemical; settings: 20 μM PIP2, 10 μM ATP, 30 minutes
T1 construct: GST (N); made in house; host or cells: Baculovirus-infected Sf9 cells
Method in brief: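 Recombinant full-length human GST-p110α/His-p85α, co-expressed in Sf9 cells, was incubated 30 min at room temperature with 20 μM PIP2 and 10 μM ATP. The buffer was 50 mM HEPES pH 7.4, 150 mM NaCl, 5 mM MgCl2, 1 mM DTT, 3 µM orthovanadate and 0.5% DMSO. ADP formed was detected by ADP-Glo luminescence.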

[1] = system: HDACs (HeLa cell nuclear extracts); assay: HDAC enzymatic activity, Biomol Color de Lys system; format: biochemical; settings: 1 hour, 25° C.
Method in brief: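 HeLa nuclear extract incubated with serially diluted compound and […] artificial substrate in 50 mM Tris/Cl pH 8.0, 137 mM NaCl, 2.7 mM KCl, 1 mM MgCl2. Run 1 h at 25 °C, stopped with developer. Fluorescence read (ex 350-380, em 440-460 nm); IC50 from sigmoidal dose-response fit.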

T1 sequence (P42336 whole entry): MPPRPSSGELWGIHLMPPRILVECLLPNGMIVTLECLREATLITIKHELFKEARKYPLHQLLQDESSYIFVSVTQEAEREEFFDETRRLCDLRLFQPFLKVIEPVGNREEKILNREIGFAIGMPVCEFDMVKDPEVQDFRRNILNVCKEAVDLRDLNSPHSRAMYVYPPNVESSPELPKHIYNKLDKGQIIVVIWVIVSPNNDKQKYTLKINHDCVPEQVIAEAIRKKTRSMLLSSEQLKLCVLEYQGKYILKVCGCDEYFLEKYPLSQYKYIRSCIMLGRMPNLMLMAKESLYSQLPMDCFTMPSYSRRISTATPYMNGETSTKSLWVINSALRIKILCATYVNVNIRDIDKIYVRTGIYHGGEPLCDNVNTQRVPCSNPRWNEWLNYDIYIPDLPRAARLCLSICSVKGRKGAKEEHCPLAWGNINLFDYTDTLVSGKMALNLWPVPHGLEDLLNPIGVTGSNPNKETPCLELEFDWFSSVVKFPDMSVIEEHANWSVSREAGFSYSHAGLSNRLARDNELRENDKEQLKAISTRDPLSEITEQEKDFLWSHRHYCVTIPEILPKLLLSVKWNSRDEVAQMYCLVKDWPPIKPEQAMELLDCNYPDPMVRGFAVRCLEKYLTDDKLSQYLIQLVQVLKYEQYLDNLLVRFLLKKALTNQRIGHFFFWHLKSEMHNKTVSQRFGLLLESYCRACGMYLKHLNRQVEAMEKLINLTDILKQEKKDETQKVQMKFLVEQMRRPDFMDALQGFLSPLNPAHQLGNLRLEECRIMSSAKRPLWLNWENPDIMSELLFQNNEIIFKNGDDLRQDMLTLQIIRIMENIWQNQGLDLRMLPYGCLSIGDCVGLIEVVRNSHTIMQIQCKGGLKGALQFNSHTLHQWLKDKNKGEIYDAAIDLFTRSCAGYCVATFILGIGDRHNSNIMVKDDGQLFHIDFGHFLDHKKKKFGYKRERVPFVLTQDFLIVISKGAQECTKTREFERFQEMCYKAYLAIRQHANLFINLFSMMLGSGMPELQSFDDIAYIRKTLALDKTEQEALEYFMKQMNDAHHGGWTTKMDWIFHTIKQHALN
T1 sequence (P27986 whole entry partner): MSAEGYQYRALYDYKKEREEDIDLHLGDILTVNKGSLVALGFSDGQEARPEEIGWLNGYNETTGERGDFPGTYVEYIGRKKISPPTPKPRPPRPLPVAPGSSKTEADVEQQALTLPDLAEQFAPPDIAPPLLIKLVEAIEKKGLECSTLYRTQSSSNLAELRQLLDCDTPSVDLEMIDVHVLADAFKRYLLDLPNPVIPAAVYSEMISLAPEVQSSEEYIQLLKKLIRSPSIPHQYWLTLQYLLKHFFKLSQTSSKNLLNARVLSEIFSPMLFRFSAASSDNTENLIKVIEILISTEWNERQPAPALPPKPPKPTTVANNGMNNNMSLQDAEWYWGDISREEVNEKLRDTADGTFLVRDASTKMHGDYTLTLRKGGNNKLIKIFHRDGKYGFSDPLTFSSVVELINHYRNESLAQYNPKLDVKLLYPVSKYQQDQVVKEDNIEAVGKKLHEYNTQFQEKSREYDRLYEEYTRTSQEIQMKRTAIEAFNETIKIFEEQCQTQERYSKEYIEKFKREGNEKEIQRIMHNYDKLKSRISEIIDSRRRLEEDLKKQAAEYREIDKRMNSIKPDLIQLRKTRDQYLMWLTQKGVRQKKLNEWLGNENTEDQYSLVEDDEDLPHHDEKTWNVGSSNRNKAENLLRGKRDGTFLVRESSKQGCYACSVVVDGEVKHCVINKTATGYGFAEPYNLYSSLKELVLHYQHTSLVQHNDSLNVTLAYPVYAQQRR

Row | melting point | IC50 (PI3Kα (p110α/p85α)) | IC50 [1] | SMILES
1 | 159 to 160 °C | < 100 nM | < 100 nM | CN(Cc1cc2nc(-c3cncnc3)nc(N3CCOCC3)c2s1)c1ncc(C(=O)NO)cn1 [Compound 119, N-hydroxy-2-(methyl((4-morpholino-2-(pyrimidin-5-yl)thieno[3,2-d]pyrimidin-6-yl)methyl)amino)pyrimidine-5-carboxamide]
2 | > 300 °C | < 100 nM | < 100 nM | CN(Cc1cc2nc(-c3cnc(CN)nc3)nc(N3CCOCC3)c2s1)c1ncc(C(=O)NO)cn1 [Compound 124, 2-(((2-(2-(aminomethyl)pyrimidin-5-yl)-4-morpholinothieno[3,2-d]pyrimidin-6-yl)methyl)(methyl)amino)-N-hydroxypyrimidine-5-carboxamide]
3 | 199 to 200 °C | > 10000 nM | < 100 nM | CN(Cc1cc2nc(-c3ccccc3)nc(N3CCOCC3)c2s1)c1ncc(C(=O)NO)cn1 [Compound 129, N-hydroxy-2-(methyl((4-morpholino-2-phenylthieno[3,2-d]pyrimidin-6-yl)methyl)amino)pyrimidine-5-carboxamide]
4 | 179 to 181 °C | 100 to 1000 nM | < 100 nM | COc1cccc(-c2nc(N3CCOCC3)c3sc(CN(C)c4ncc(C(=O)NO)cn4)cc3n2)c1 [Compound 130, N-hydroxy-2-(((2-(3-methoxyphenyl)-4-morpholinothieno[3,2-d]pyrimidin-6-yl)methyl)(methyl)amino)pyrimidine-5-carboxamide]
5 | 247 °C (dec.) | > 10000 nM | < 100 nM | COc1ccc(-c2nc(N3CCOCC3)c3sc(CN(C)c4ncc(C(=O)NO)cn4)cc3n2)cc1 [Compound 131, N-hydroxy-2-(((2-(4-methoxyphenyl)-4-morpholinothieno[3,2-d]pyrimidin-6-yl)methyl)(methyl)amino)pyrimidine-5-carboxamide]
6 | 185 to 195 °C | 100 to 1000 nM | < 100 nM | CN(Cc1cc2nc(-c3ccc(O)cc3)nc(N3CCOCC3)c2s1)c1ncc(C(=O)NO)cn1 [Compound 133, N-hydroxy-2-(((2-(4-hydroxyphenyl)-4-morpholinothieno[3,2-d]pyrimidin-6-yl)methyl)(methyl)amino)pyrimidine-5-carboxamide]
7 | 179 to 182 °C | 100 to 1000 nM | < 100 nM | CN(Cc1cc2nc(-c3cccc(N)c3)nc(N3CCOCC3)c2s1)c1ncc(C(=O)NO)cn1 [Compound 134, 2-(((2-(3-aminophenyl)-4-morpholinothieno[3,2-d]pyrimidin-6-yl)methyl)(methyl)amino)-N-hydroxypyrimidine-5-carboxamide]
8 | 184 to 186 °C | 100 to 1000 nM | < 100 nM | CN(Cc1cc2nc(-c3ccc(CN)cc3)nc(N3CCOCC3)c2s1)c1ncc(C(=O)NO)cn1 [Compound 135, 2-(((2-(4-(aminomethyl)phenyl)-4-morpholinothieno[3,2-d]pyrimidin-6-yl)methyl)(methyl)amino)-N-hydroxypyrimidine-5-carboxamide]
9 | 173 to 176 °C | 1000 to 10000 nM | < 100 nM | CN(Cc1cc2nc(-c3cccc(CN)c3)nc(N3CCOCC3)c2s1)c1ncc(C(=O)NO)cn1 [Compound 137, 2-(((2-(3-(aminomethyl)phenyl)-4-morpholinothieno[3,2-d]pyrimidin-6-yl)methyl)(methyl)amino)-N-hydroxypyrimidine-5-carboxamide]
10 | 178 to 181 °C | 100 to 1000 nM | < 100 nM | COCc1cccc(-c2nc(N3CCOCC3)c3sc(CN(C)c4ncc(C(=O)NO)cn4)cc3n2)c1 [Compound 139, N-hydroxy-2-(((2-(3-(methoxymethyl)phenyl)-4-morpholinothieno[3,2-d]pyrimidin-6-yl)methyl)(methyl)amino)pyrimidine-5-carboxamide]
11 | 218 to 223 °C | 100 to 1000 nM | < 100 nM | CN(Cc1cc2nc(-c3ccc(CO)cc3)nc(N3CCOCC3)c2s1)c1ncc(C(=O)NO)cn1 [Compound 140, N-hydroxy-2-(((2-(4-(hydroxymethyl)phenyl)-4-morpholinothieno[3,2-d]pyrimidin-6-yl)methyl)(methyl)amino)pyrimidine-5-carboxamide]
12 | 173 to 176 °C | 100 to 1000 nM | < 100 nM | CN(Cc1cc2nc(-c3ccccc3CO)nc(N3CCOCC3)c2s1)c1ncc(C(=O)NO)cn1 [Compound 141, N-hydroxy-2-(((2-(2-(hydroxymethyl)phenyl)-4-morpholinothieno[3,2-d]pyrimidin-6-yl)methyl)(methyl)amino)pyrimidine-5-carboxamide]
13 | 200 to 202 °C | 100 to 1000 nM | < 100 nM | CN(Cc1cc2nc(-c3ccc(C(N)=O)cc3)nc(N3CCOCC3)c2s1)c1ncc(C(=O)NO)cn1 [Compound 143, 2-(((2-(4-carbamoylphenyl)-4-morpholinothieno[3,2-d]pyrimidin-6-yl)methyl)(methyl)amino)-N-hydroxypyrimidine-5-carboxamide]
14 | 215 to 217 °C | 1000 to 10000 nM | < 100 nM | CNC(=O)c1cccc(-c2nc(N3CCOCC3)c3sc(CN(C)c4ncc(C(=O)NO)cn4)cc3n2)c1 [Compound 144, N-hydroxy-2-(methyl((2-(3-(methylcarbamoyl)phenyl)-4-morpholinothieno[3,2-d]pyrimidin-6-yl)methyl)amino)pyrimidine-5-carboxamide]
15 | 214 to 216 °C | > 10000 nM | < 100 nM | CN(Cc1cc2nc(-c3ccc(C#N)cc3)nc(N3CCOCC3)c2s1)c1ncc(C(=O)NO)cn1 [Compound 146, 2-(((2-(4-cyanophenyl)-4-morpholinothieno[3,2-d]pyrimidin-6-yl)methyl)(methyl)amino)-N-hydroxypyrimidine-5-carboxamide]
16 | 153 °C | > 10000 nM | < 100 nM | CN(Cc1cc2nc(-c3ccc(Cl)cc3)nc(N3CCOCC3)c2s1)c1ncc(C(=O)NO)cn1 [Compound 147, 2-(((2-(4-chlorophenyl)-4-morpholinothieno[3,2-d]pyrimidin-6-yl)methyl)(methyl)amino)-N-hydroxypyrimidine-5-carboxamide]
17 | 155 °C (dec.) | > 10000 nM | < 100 nM | CC(C)c1ccc(-c2nc(N3CCOCC3)c3sc(CN(C)c4ncc(C(=O)NO)cn4)cc3n2)cc1 [Compound 148, N-hydroxy-2-(((2-(4-isopropylphenyl)-4-morpholinothieno[3,2-d]pyrimidin-6-yl)methyl)(methyl)amino)pyrimidine-5-carboxamide]
18 | 206 to 208 °C | > 10000 nM | < 100 nM | CN(Cc1cc2nc(-c3ccc(S(C)(=O)=O)cc3)nc(N3CCOCC3)c2s1)c1ncc(C(=O)NO)cn1 [Compound 149, N-hydroxy-2-(methyl((2-(4-(methylsulfonyl)phenyl)-4-morpholinothieno[3,2-d]pyrimidin-6-yl)methyl)amino)pyrimidine-5-carboxamide]
19 | 218 to 220 °C | > 10000 nM | < 100 nM | CNc1ccc(-c2nc(N3CCOCC3)c3sc(CN(C)c4ncc(C(=O)NO)cn4)cc3n2)cc1 [Compound 151, N-hydroxy-2-(methyl((2-(4-(methylamino)phenyl)-4-morpholinothieno[3,2-d]pyrimidin-6-yl)methyl)amino)pyrimidine-5-carboxamide]
20 | 208 to 210 °C | > 10000 nM | < 100 nM | CN(C)c1ccc(-c2nc(N3CCOCC3)c3sc(CN(C)c4ncc(C(=O)NO)cn4)cc3n2)cc1 [Compound 152, 2-(((2-(4-(dimethylamino)phenyl)-4-morpholinothieno[3,2-d]pyrimidin-6-yl)methyl)(methyl)amino)-N-hydroxypyrimidine-5-carboxamide]
21 | 185 to 187 °C | > 10000 nM | < 100 nM | CCNc1ccc(-c2nc(N3CCOCC3)c3sc(CN(C)c4ncc(C(=O)NO)cn4)cc3n2)cc1 [Compound 153, 2-(((2-(4-(ethylamino)phenyl)-4-morpholinothieno[3,2-d]pyrimidin-6-yl)methyl)(methyl)amino)-N-hydroxypyrimidine-5-carboxamide]
22 | 192 to 196 °C | > 10000 nM | < 100 nM | CCN(CC)c1ccc(-c2nc(N3CCOCC3)c3sc(CN(C)c4ncc(C(=O)NO)cn4)cc3n2)cc1 [Compound 154, 2-(((2-(4-(Diethylamino)phenyl)-4-morpholinothieno[3,2-d]pyrimidin-6-yl)methyl)(methyl)amino)-N-hydroxypyrimidine-5-carboxamide]
23 | 187 to 192 °C | > 10000 nM | < 100 nM | CN(Cc1cc2nc(-c3ccc(N4CCCC4)cc3)nc(N3CCOCC3)c2s1)c1ncc(C(=O)NO)cn1 [Compound 155, N-hydroxy-2-(methyl((4-morpholino-2-(4-(pyrrolidin-1-yl)phenyl)thieno[3,2-d]pyrimidin-6-yl)methyl)amino)pyrimidine-5-carboxamide]
24 | 222 to 225 °C | 100 to 1000 nM | < 100 nM | CN(Cc1cc2nc(-c3ccc(N)c(N)c3)nc(N3CCOCC3)c2s1)c1ncc(C(=O)NO)cn1 [Compound 156, 2-(((2-(3,4-diaminophenyl)-4-morpholinothieno[3,2-d]pyrimidin-6-yl)methyl)(methyl)amino)-N-hydroxypyrimidine-5-carboxamide]
